Laboratory results from US9770481B2, “Inhibitors of NOX1” (UNIVERSITY OF PITTSBURGH—OF THE COMMONWEALTH SYSTEM OF …, priority 2011, dated 2017).

What was measured:
Nox2 = biological target: T1, Nox2 (Homo sapiens, UniProt P04839); experiment: O2- production by lysates of COS cells transfected with Nox2 oxidase, LiDS-stimulated (cytochrome c); assay type: cell-based; conditions: 0.1 nM to 10,000 nM
T1 construct: expressed in transfected cells; host or cells: COS22 / COS cells, transient transfection; cell lysates
T1 sequence (P04839 2-570 limits assumed): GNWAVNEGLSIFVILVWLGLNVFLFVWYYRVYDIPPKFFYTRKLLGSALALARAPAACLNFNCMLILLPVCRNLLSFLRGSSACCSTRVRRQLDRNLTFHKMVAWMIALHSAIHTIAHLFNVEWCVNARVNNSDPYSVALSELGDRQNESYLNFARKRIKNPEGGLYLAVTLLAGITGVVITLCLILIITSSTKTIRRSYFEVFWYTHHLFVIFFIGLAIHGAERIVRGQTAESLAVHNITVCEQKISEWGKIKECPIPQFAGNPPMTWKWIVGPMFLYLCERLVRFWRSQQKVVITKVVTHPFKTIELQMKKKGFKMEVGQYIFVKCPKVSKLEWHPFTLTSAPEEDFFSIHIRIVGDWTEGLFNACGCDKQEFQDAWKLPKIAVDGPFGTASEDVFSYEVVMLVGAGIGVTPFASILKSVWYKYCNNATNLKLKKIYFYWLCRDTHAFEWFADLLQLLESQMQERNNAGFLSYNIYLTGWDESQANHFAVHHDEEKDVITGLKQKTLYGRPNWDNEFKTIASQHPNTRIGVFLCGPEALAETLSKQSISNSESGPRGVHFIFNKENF
T1 sequence (P13498 1-195 partner): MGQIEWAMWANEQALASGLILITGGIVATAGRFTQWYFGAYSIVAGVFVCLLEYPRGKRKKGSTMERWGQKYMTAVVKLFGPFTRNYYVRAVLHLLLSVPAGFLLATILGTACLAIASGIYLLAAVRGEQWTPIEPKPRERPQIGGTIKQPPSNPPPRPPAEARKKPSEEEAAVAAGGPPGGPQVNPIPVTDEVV
Experimental: (§1) To test whether the inhibitory effect of NoxA1ds is specific to Nox1, the effect of NoxA1ds was tested on cells expressing Nox2, Nox4, and Nox5 as well as on purified xanthine oxidase enzyme. To test the effect on Nox2, production of O2^− was measured by the reduction of cytochrome c by cell lysates from COS cells transiently transfected with the Nox2 oxidase, stimulated with LiDS, and the treated with increasing concentrations of NoxA1ds (from 0.1 nM to 10,000 nM). Similarly, production of H2O2 was measured by Amplex red fluorescence by COS cells transiently transfected with the Nox4 oxidase and treated with increasing concentrations of NoxA1ds (from 100 nM to 10,000 nM). Production of O2^− was also measured by the reduction of cytochrome c by cell lysates from HEK293 cells stably transfected with the Nox5 oxidase stimulated with Ca^2+, and treated with increasing concentrations of NoxA1ds (from 0.1 nM to 10,000 nM). Finally, production of O2^− was measured by Electron Paramagnetic Resonance from pure xanthine oxidase enzyme preparations, stimulated with hypoxanthine and treated with increasing concentrations of NoxA1ds (from 0.1 nM to 10,000 nM).

Nox4 = biological target: T2, Nox4 (Homo sapiens, UniProt Q9NPH5); experiment: H2O2 production by COS cells transfected with Nox4 oxidase (Amplex red); assay type: cell-based; conditions: 100 nM to 10,000 nM
T2 construct: expressed in transfected cells; host or cells: COS22 / COS cells, transient transfection
T2 sequence (Q9NPH5 1-578): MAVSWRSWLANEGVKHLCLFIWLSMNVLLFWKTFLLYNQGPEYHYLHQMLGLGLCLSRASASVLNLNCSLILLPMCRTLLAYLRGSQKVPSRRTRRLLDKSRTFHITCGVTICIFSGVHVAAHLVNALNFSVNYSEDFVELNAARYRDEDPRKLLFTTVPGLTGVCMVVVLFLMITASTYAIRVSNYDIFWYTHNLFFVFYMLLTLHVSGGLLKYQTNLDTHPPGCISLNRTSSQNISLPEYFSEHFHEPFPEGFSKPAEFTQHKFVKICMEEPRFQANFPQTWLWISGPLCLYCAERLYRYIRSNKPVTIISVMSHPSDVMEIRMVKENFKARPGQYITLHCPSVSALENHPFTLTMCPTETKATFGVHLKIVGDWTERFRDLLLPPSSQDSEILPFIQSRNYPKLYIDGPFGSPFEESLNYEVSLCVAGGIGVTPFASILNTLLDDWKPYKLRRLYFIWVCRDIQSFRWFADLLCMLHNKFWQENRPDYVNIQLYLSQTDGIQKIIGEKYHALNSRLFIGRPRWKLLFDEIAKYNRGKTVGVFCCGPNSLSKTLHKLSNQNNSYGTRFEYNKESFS
T2 sequence (P13498 1-195 partner): T1 sequence (P13498 1-195 partner)
Experimental: as §1

[1] = test system: HPAEC constitutively expressing Nox1; experiment: Angiotensin II-induced O2- production by HPAEC (cytochrome c); assay type: cell-based, human; conditions: 100 nM angiotensin II, 10 μM peptide, 1 hr
Experimental: FIG. 10. O2^− Production by human pulmonary artery endothelial cells (“HPAEC”) which were either (i) untreated; (ii) treated with 100 nM angiotensin II; (iii) treated with 100 nM angiotensin II and 10 μM NoxA1ds; or (iv) treated with 100 nM angiotensin II and 10 μM SCRMB peptide. Results represent mean±SEM, n=5-9, 2-3 separate experiments.
In further studies, HPAEC constitutively expressing Nox1 were treated with vehicle or Angiotensin II (AngII, one mediator of hypertension) alone or in combination with NoxA1ds, or SCRMB for 1 hr. O2^− production was then measured via reduction of cytochrome c.

Substance: H-EPVDALGKAKV-NH2 [NoxA1ds, [NH3^+]-EPVDALGKAKV-[CONH2]]
- Inhibitory effect on Nox2 O2- production (Nox2): did not exhibit a significant inhibitory effect
- Inhibitory effect on Nox4 H2O2 production (Nox4): did not exhibit a significant inhibitory effect
- AngII-induced O2- production [1]: completely inhibited
